# From patent US6319929A, “Suksdorfin analogs, compositions thereof, and methods for making and using thereof” (priority 1998, dated 2001)
# Read-outs that look alike come from different tables or passages of the source.
# How the values were obtained:
# Format in all cases: cell-based
# uninfected H9 cells = test: Combination study of suksdorfin with AZT, ddI and ddC: toxicity to uninfected H9 cells; settings: for IC50: Homo sapiens
# Procedure: Pharm. Asso. […] Aliquots ( ml) were placed in wells of 24-well culture plates containing an equal volume of test compound (diluted in the appropriate culture medium). After incubation for 4 days at 37° C., cell density of uninfected cultures was determined by counting cells in a Coulter counter to assess toxicity of the test compound. A p24 antigen ELISA assay was used to determine the level of virus released in the medium of the HIV-infected cultures. The p24 antigen assay uses a HIV-1 anti-p24 specific monoclonal antibody as the capture antibody coated-on 96-well plates. Following a sample incubation period, rabbit serum containing antibodies for HIV-1 p24 is used to tag any p24 "captured" onto the microtiter well surface. […] The cut-off for the p24 ELISA assay is 12. pg/ml. P24 in the culture medium was quantitated against a standard curve containing known amounts of p24. The effective (EC50) and inhibitory (IC50) concentrations (for anti-HIV activity and cytotoxicity, respectively) were determined graphically.
# Combination Study: The experimental design is identical to the growth inhibition assay except that various concentrations of AZT, ddI or ddC were also added to cultures of acutely HIV-1 infected H9 cells that either have or have no received different concentrations of suksdorfin.
# [1] = system: HIV-1 replication in fresh elutriated monocytes; test: HIV-1 infection of primary elutriated monocytes (p24 antigen)
# From the text: In order to determine if compound 16 suppressive activity was limited to only fresh T cells infected with HIV-1, elutriated monocytes were infected with HIV-1 and then cultured with various concentrations of compound 16 or AZT. […] This illustrates that the effect of the drμg is not only limited to T cells but also can effect virally infected monocytes.
# [2] = system: HIV-2 replication in HUT-78 cells; test: Suppression of virus replication during HIV-2 infection of HUT-78 cells (reverse transcriptase assay)
# From the text: During this experiment, HIV-2 was used. The basic assay system is identical to that used for HIV-1 except that a different virus stock was used and rather than a p24 antigen ELISA determination a reverse transcriptase assay was used to detect the presence of the virus.
# U937 cells = test: Toxicity to uninfected U937 cells; settings: Homo sapiens, U-937; U937 cell line
# Procedure: Suksdorfin was also tested on an acute HIV-1 infection of the promonocytic cell line, U937. This was done again to determine drug specificity but this time on a monocytic cell line.
# HIV Growth Inhibition Assay: The T cell line, H9, and the promonocytic cell line, U937, were maintained separately in continuous culture with complete medium (RPMI 1640 and […] fetal calf serum (FCS) at 5% CO2 and 37° C. Cell lines were used in experiments only when in log phase of growth; whereas, uninfected peripheral blood mononuclear cells (PBMCs) were first stimulated with PHA (1 μg/ml) for 3 days. All cell targets were incubated with HIV-1 (IIIB isolate, TCID50 10 ^4 IU/mi, at a multiplicity of infection of 0.1-0.01 IU/cell) for 1 hour at 37° C. and 5% CO2. The cell lines and PBMCs were washed thoroughly to remove unabsorbed virions and resuspended at 4×10^5 cells/ml in complete medium or complete medium with 10% v/v interleukin (Pettinato, et al. J. Amer. Pharm. Asso. […] After incubation for 4 days at 37° C., cell density of uninfected cultures was determined by counting cells in a Coulter counter to assess toxicity of the test compound. […] P24 in the culture medium was quantitated against a standard curve containing known amounts of p24. The effective (EC50) and inhibitory (IC50) concentrations (for anti-HIV activity and cytotoxicity, respectively) were determined graphically. […]
smiles,measurement,setting,value
"Cc1cn([C@H]2C[C@H](N=[N+]=[N-])[C@@H](CO)O2)c(=O)[nH]c1=O [AZT, azidothymidine, reference compound]",IC50,uninfected H9 cells; H9,> 1 µg/mL
same,IC50,"uninfected H9 cells; H9, read-out: IC50 (μM)^a",> 1 µg/mL
same,p24 antigen,"[1]; Day 17, 0.0001 μg/ml",83 pg/mL
same,p24 antigen,"[1]; Day 17, 0.001 μg/ml",100 pg/mL
same,p24 antigen,"[1]; Day 17, 0.01 μg/ml",7 pg/mL
same,p24 antigen,"[1]; Day 17, 0.1 μg/ml",5 pg/mL
same,p24 antigen,"[1]; Day 17, 1 μg/ml",2 pg/mL
same,p24 antigen,"[1]; Day 17, 10 μg/ml",0.1 pg/mL
same,p24 antigen,"[1]; Day 28, 0.0001 μg/ml",0 pg/mL
same,p24 antigen,"[1]; Day 28, 0.001 μg/ml",0 pg/mL
same,p24 antigen,"[1]; Day 28, 0.01 μg/ml",0 pg/mL
same,p24 antigen,"[1]; Day 28, 0.1 μg/ml",0 pg/mL
same,p24 antigen,"[1]; Day 28, 1 μg/ml",0 pg/mL
same,p24 antigen,"[1]; Day 28, 10 μg/ml",0 pg/mL
"CC1(C)Oc2ccc3ccc(=O)oc3c2[C@@H](OC(=O)[C@@]23CC[C@@](C)(C(=O)O2)C3(C)C)[C@H]1OC(=O)[C@@]12CC[C@@](C)(C(=O)O1)C2(C)C [Compound 16, 3',4'-Di-O-(-)-Camphanoyl-(+)-cis-Khellactone]",effect on HIV-2 replication (in words),[2],no effect on the virus replication of HIV-2
same,suppression of HIV-1 replication in fresh elutriated monocytes (in words),[1],able to suppress HIV-1 replication in fresh elutriated monocytes
same,p24 antigen,"[1]; Day 17, 0.0000102 μg/ml",49 pg/mL
same,p24 antigen,"[1]; Day 17, 0.0000512 μg/ml",52 pg/mL
same,p24 antigen,"[1]; Day 17, 0.000256 μg/ml",70 pg/mL
same,p24 antigen,"[1]; Day 17, 0.00128 μg/ml",306 pg/mL
same,p24 antigen,"[1]; Day 17, 0.0064 μg/ml",66 pg/mL
same,p24 antigen,"[1]; Day 17, 0.032 μg/ml",94 pg/mL
same,p24 antigen,"[1]; Day 17, 0.16 μg/ml",7 pg/mL
same,p24 antigen,"[1]; Day 17, 0.8 μg/ml",6 pg/mL
same,p24 antigen,"[1]; Day 17, 4 μg/ml",6 pg/mL
same,p24 antigen,"[1]; Day 17, 20 μg/ml",5 pg/mL
same,p24 antigen,"[1]; Day 28, 0.0000102 μg/ml",1536 pg/mL
same,p24 antigen,"[1]; Day 28, 0.0000512 μg/ml",824 pg/mL
same,p24 antigen,"[1]; Day 28, 0.000256 μg/ml",760 pg/mL
same,p24 antigen,"[1]; Day 28, 0.00128 μg/ml",208 pg/mL
same,p24 antigen,"[1]; Day 28, 0.0064 μg/ml",584 pg/mL
same,p24 antigen,"[1]; Day 28, 0.032 μg/ml",0 pg/mL
same,p24 antigen,"[1]; Day 28, 0.16 μg/ml",0 pg/mL
same,p24 antigen,"[1]; Day 28, 0.8 μg/ml",0 pg/mL
same,p24 antigen,"[1]; Day 28, 4 μg/ml",0 pg/mL
same,p24 antigen,"[1]; Day 28, 20 μg/ml",0 pg/mL
"CC(=O)O[C@@H]1[C@H](OC(=O)CC(C)C)c2c(ccc3ccc(=O)oc23)OC1(C)C [Suksdorfin, suksdorfin]",toxicity to H9 cells,uninfected H9 cells; 20 μg/ml,toxic to H9 cells
same,IC50,U937 cells,> 20 µg/mL
